Publication PMC12196264, “Design and Synthesis of Pyridine-Based Pyrrolo[2,3-d]pyrimidine Analogs as CSF1R Inhibitors: Molecular Hybridization and Scaffold Hopping Approach” (Pharmaceuticals, 2025)
In brackets after ≈: the same amount, converted by molar mass.

Assays:
panel of 50 kinases = assay: Kinase panel selectivity; format: biochemical; conditions: 1 μM
Experimental: To further evaluate potential off-target activity, compound 14c was screened against a panel of 50 kinases at a concentration of 1 μM. […] Inhibitor selectivity can be quantified using the selectivity score (S-score), which assumes that low inhibitory activity is clinically irrelevant. The S-score is calculated by dividing the number of kinases inhibited above a defined threshold by the total number of kinases tested. […] Further details on the selectivity data can be found in SI (Table S1). […]
(§1) Ta b l e S 1. Inhibition (%) by compound 14c towards di7erent kinases. Values are average of two
(§2) measurements at 1000 nM test concentration. The ATP concentration was equal to KM.
(§3) Kinase ATP conc. % inhibition

[1] = test system: Ba/F3 cells engineered to be dependent on CSF1R but added additional IL-3; assay: Cell viability assay with Ba/F3-hCSF1R cells with added IL-3; format: cell-based; conditions: Mus musculus, BaF3; Ba/F3 CSF1R cells with additional IL-3; read-out: Cellular Assay IC50 (μM), Ba/F3 IL-3
Experimental: (§4) Given the promising enzymatic activity of the synthesized derivatives, cellular assays were performed using Ba/F3 cells engineered to depend on constitutively active CSF1R. […] We have also previously observed a low correlation between enzymatic and cellular activities, which may arise from the enzymatic protein construct not accurately mimicking the active conformation of CSF1R in a cellular context.
(§5) Performed as reported previously.

cKIT = cKIT (Homo sapiens, UniProt P10721); assay: KIT-WT LanthaScreen binding assay (Kd); conditions: single eight-point titrations, TR-FRET LanthaScreen Binding Assay; R^2 of fit in parentheses; read-out: Enzymatic Assay KIT (Kd)
Experimental: The TR-FRET-based LanthaScreen Binding Assay was performed to determine Kd values of synthesized derivatives against cKIT.
Subsequently, 8 µL of kinase anti-GST antibody mixture was added, followed by incubation at 4 °C for 30 min in a pre-cooled, humidified box to minimize edge effects. The reaction was initiated by adding 5 µL of tracer working solution and mixed on a Bioshake 5000 microplate shaker (Q Instruments, Jena, Germany). […] Kd values were calculated from sigmoidal dose-response curves using Scigilian Analyze software version 5.8.5.15 (Scigilian, Montreal, QC, Canada).

TEK = TEK (Homo sapiens, UniProt Q02763); assay: Kinase panel; format: biochemical
Experimental: as §1, §2, §3

JAK2 = JAK2 (Homo sapiens, UniProt O60674); assay: Kinase panel; format: biochemical
Experimental: as §1, §2, §3

FRAP1 = FRAP1 (Homo sapiens, UniProt P42345); assay: Kinase panel; format: biochemical
Experimental: as §1, §2, §3

JAK1 = JAK1 (Homo sapiens, UniProt P23458); assay: Kinase panel; format: biochemical
Sequence of JAK1 (P23458 whole entry, species assumed): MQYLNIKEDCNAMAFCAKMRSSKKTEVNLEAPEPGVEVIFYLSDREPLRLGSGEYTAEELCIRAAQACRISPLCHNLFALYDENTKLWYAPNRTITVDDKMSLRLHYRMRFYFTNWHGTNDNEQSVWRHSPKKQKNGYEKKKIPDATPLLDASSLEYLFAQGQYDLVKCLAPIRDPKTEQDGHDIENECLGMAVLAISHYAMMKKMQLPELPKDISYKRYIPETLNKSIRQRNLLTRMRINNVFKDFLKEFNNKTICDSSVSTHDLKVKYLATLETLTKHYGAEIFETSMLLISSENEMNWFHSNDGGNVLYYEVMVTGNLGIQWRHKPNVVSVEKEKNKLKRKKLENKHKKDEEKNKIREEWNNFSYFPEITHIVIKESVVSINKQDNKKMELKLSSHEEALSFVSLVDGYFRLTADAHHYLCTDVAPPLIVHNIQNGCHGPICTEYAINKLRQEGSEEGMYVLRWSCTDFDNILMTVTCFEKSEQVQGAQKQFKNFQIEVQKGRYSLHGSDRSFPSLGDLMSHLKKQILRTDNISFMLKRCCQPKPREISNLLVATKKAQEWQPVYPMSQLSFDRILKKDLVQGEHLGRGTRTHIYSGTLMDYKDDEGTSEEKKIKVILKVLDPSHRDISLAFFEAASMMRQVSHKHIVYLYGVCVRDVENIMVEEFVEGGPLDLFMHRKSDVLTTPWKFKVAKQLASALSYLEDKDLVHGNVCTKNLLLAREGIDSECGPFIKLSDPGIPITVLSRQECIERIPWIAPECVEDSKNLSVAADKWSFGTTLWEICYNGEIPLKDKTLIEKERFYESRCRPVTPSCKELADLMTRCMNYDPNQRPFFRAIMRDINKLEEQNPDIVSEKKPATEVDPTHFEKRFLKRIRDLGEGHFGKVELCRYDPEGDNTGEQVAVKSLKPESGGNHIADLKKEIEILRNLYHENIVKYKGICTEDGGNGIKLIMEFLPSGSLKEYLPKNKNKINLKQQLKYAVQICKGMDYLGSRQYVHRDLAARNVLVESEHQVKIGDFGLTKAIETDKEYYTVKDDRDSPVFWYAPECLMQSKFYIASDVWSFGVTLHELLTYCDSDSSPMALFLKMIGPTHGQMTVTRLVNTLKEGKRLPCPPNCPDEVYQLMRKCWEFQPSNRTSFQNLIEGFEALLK
Experimental: as §1, §2, §3

RET = RET (Homo sapiens, UniProt P07949); assay: Kinase panel; format: biochemical
Experimental: as §1, §2, §3

NEK1 = NEK1 (Homo sapiens, UniProt Q96PY6); assay: Kinase panel; format: biochemical
Experimental: as §1, §2, §3

HCK = HCK (Homo sapiens, UniProt P08631); assay: Kinase panel; format: biochemical
Sequence of HCK (P08631 whole entry, species assumed): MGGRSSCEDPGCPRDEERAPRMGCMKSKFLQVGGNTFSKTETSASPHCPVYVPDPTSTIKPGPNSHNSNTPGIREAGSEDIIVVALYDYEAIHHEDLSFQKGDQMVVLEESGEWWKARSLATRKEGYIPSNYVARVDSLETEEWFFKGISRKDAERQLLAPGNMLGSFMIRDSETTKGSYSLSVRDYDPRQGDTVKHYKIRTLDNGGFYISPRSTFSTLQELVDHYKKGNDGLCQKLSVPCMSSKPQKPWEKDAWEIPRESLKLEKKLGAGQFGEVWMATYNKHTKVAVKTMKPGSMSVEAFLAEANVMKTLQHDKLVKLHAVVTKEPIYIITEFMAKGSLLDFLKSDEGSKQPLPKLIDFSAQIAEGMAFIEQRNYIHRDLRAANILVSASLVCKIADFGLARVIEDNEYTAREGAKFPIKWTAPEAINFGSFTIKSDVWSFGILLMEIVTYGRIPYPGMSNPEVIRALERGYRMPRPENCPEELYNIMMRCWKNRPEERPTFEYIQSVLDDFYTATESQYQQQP
Experimental: as §1, §2, §3

ABL2 = ABL2 (Homo sapiens, UniProt P42684); assay: Kinase panel; format: biochemical
Experimental: as §1, §2, §3

FGFR1 = FGFR1 (Homo sapiens, UniProt P11362); assay: Kinase panel; format: biochemical
Sequence of FGFR1 (P11362 22-822, species assumed): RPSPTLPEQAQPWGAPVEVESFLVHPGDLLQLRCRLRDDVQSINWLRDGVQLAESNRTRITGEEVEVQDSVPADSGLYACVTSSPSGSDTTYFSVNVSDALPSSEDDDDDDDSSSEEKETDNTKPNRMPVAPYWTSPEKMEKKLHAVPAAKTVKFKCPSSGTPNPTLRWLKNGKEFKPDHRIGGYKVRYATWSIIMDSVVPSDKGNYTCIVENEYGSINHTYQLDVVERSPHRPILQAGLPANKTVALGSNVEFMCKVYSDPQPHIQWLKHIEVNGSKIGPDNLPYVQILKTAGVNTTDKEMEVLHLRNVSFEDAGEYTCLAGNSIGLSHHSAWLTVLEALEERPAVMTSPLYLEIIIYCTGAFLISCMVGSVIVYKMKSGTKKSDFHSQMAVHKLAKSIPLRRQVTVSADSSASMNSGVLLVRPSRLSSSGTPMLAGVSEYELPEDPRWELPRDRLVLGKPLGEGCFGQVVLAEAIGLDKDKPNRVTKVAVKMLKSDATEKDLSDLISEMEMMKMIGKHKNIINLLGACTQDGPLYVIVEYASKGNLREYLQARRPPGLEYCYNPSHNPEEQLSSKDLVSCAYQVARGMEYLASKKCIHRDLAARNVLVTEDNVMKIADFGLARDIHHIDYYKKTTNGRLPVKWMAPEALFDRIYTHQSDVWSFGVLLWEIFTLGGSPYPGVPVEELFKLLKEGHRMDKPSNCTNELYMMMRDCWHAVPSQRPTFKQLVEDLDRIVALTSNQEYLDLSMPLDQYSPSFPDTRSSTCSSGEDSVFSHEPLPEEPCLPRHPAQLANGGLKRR
Experimental: as §1, §2, §3

LYN A = LYN A (Homo sapiens, UniProt P07948); assay: Kinase panel; format: biochemical
Sequence of LYN A (P07948 whole entry, species assumed): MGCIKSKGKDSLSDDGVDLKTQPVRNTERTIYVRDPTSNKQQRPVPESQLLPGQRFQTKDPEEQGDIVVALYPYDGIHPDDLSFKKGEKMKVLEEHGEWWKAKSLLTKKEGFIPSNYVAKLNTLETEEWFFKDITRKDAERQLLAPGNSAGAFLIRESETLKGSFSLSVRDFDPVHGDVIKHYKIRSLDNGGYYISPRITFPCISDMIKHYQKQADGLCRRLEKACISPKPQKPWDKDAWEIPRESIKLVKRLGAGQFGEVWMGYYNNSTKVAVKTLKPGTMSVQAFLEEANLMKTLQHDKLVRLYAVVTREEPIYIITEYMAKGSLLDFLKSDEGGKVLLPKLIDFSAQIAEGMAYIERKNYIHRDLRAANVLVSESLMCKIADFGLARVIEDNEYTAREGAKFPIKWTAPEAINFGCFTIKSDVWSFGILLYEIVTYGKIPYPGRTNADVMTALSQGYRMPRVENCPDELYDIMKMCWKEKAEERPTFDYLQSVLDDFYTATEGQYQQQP
Experimental: as §1, §2, §3

ITK = ITK (Homo sapiens, UniProt Q08881); assay: Kinase panel; format: biochemical
Experimental: as §1, §2, §3

CLK1 = CLK1 (Homo sapiens, UniProt P49759); assay: Kinase panel; format: biochemical
Sequence of CLK1 (P49759 whole entry): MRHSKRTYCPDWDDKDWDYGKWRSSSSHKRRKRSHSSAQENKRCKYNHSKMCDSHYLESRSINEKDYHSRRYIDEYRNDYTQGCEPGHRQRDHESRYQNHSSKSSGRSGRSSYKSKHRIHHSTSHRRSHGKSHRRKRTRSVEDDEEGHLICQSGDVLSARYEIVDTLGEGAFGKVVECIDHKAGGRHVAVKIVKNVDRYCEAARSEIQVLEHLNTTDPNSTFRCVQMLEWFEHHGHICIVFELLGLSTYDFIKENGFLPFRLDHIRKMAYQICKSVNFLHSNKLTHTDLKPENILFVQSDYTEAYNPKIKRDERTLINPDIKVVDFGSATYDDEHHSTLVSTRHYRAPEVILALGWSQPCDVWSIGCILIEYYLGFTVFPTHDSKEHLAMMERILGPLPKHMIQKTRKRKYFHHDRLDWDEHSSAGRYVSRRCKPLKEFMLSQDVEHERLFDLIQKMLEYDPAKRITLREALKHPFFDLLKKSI
Experimental: as §1, §2, §3

ERBB2 = ERBB2 (Homo sapiens, UniProt P04626); assay: Kinase panel; format: biochemical
Experimental: as §1, §2, §3

PLK1 = PLK1 (Homo sapiens, UniProt P53350); assay: Kinase panel; format: biochemical
Sequence of PLK1 (P53350 whole entry, species assumed): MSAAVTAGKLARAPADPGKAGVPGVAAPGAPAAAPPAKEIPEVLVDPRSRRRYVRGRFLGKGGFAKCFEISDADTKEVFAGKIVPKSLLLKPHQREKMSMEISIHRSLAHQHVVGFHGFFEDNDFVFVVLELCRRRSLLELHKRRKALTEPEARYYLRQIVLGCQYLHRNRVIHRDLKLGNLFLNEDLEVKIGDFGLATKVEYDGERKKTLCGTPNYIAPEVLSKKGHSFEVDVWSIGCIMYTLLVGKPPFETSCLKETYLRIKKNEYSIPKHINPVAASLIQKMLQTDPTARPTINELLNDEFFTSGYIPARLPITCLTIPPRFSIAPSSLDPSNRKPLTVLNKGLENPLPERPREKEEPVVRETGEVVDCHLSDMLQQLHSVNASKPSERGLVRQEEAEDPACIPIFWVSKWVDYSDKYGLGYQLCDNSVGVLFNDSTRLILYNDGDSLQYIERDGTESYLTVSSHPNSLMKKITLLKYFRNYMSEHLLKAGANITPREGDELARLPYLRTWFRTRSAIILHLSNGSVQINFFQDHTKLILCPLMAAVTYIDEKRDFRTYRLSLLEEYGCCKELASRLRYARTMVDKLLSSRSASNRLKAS
Experimental: as §1, §2, §3

DYRK1A = DYRK1A (Homo sapiens, UniProt Q13627); assay: Kinase panel; format: biochemical
Experimental: as §1, §2, §3

ALK = ALK (Homo sapiens, UniProt Q9UM73); assay: Kinase panel; format: biochemical
Experimental: as §1, §2, §3

CSF1R [2] = target: T1, CSF1R (Homo sapiens, UniProt P07333); assay: Kinase panel; format: biochemical
T1 sequence (P07333 20-972): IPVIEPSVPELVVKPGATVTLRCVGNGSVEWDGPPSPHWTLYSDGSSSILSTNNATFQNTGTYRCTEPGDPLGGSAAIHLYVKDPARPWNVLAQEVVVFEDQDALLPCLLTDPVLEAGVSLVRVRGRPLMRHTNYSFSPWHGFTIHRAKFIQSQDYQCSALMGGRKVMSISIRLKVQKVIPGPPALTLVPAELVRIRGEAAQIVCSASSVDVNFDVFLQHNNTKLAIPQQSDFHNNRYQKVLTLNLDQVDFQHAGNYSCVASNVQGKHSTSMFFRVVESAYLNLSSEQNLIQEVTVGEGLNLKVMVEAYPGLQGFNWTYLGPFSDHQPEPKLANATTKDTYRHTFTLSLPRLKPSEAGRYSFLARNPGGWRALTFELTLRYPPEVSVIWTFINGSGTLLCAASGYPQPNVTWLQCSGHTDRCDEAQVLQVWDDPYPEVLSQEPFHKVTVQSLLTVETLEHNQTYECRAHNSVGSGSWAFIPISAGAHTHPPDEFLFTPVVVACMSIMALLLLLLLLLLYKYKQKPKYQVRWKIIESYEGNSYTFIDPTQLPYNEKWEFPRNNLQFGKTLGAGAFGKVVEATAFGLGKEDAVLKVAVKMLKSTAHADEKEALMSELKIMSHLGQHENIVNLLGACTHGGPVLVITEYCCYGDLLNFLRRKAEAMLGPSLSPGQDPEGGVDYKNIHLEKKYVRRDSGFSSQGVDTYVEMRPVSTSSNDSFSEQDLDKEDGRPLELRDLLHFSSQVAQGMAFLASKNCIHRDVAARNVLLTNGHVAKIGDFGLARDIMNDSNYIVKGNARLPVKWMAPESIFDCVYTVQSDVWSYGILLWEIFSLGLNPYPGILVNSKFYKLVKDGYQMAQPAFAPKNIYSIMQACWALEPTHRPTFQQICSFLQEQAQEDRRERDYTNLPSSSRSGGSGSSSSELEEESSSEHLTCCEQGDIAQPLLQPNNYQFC
Experimental: as §1, §2, §3

KIT = KIT (Homo sapiens, UniProt P10721); assay: Kinase panel; format: biochemical
Experimental: as §1, §2, §3

YES1 = YES1 (Homo sapiens, UniProt P07947); assay: Kinase panel; format: biochemical
Experimental: as §1, §2, §3

Aurora B = Aurora B (Homo sapiens, UniProt Q96GD4); assay: Kinase panel; format: biochemical
Experimental: as §1, §2, §3

MDCK permeability assay = format: in vitro ADME, canine; conditions: dog, MDCK monolayer
Experimental: Six selected compounds were assessed for metabolic stability (clearance) in mouse liver microsomes (MLM) and human liver microsomes (HLM), and apparent permeability (Papp) using a MDCK permeability assay. […] Although currently limited by solubility and permeability, its metabolic profile provides a starting point for targeted structural modifications aimed at overcoming these challenges.

[3] = Microsomal stability, mouse liver microsomes; format: in vitro ADME; conditions: mouse liver microsome
Experimental: (§6) The aqueous solubility of the compounds and metabolic stability under oxidative conditions was performed as described previously.

CSF1R [4] = target: T1, CSF1R; assay: CSF1R enzymatic inhibitory assay (TR-FRET LANCE Ultra); format: biochemical; conditions: single eight-point titrations, ATP 25 μM, R^2 of fit in parentheses
Experimental: The TR-FRET-based LANCE Ultra assay (Perkin Elmer, Waltham, MA, USA) was used to determine IC50 values for various CSF1R inhibitors. Kinase activity and inhibition in this assay was measured as previously reported. Scigilian Analyze software version 5.8.5.15 (Scigilian, Montreal, QC, Canada) was used.

Kinetic solubility = format: physicochemical; conditions: aqueous buffer, kinetic from dmso stock; spectrophotometric, pH 7.4 in HEPES buffer
Experimental: as §6

[5] = Microsomal stability, human liver microsomes; format: in vitro ADME; conditions: human liver microsome
Experimental: as §6

[6] = test system: Ba/F3 cells engineered to be dependent on CSF1R; assay: Cell viability assay with Ba/F3-hCSF1R cells; format: cell-based
Experimental: as §4, §5

Selectivity towards CSF1R in kinase panel (in words) (panel of 50 kinases): high selectivity | IC50 [1]: > 10 µM | Kd (cKIT): > 1000 nM | inhibition at 1 µM (TEK): 8% | inhibition at 1 µM (JAK2): 4% | inhibition at 1 µM (FRAP1): -5% | inhibition at 1 µM (JAK1): -5% | inhibition at 1 µM (RET): 14% | inhibition at 1 µM (NEK1): 16% | inhibition at 1 µM (HCK): 16% | inhibition at 1 µM (ABL2): 75% | inhibition at 1 µM (FGFR1): 3% | inhibition at 1 µM (LYN A): 18% | inhibition at 1 µM (ITK): 8% | inhibition at 1 µM (CLK1): 3% | inhibition at 1 µM (ERBB2): 9% | inhibition at 1 µM (PLK1): 7% | inhibition at 1 µM (DYRK1A): 4% | inhibition at 1 µM (ALK): 11% | inhibition at 1 µM (CSF1R [2]): 95% | inhibition at 1 µM (KIT): 18% | inhibition at 1 µM (YES1): 65% | inhibition at 1 µM (Aurora B): 34% | Papp A→B (MDCK permeability assay; A–B direction): 5.4 ×10⁻⁶ cm/s | Papp B→A (MDCK permeability assay; B–A direction): 0.8 ×10⁻⁶ cm/s | efflux ratio (MDCK permeability assay; read-out: MDCK Ratio (Papp B–A/A–B)): 0.14 | MLM in vitro intrinsic clearing [3]: 60.5 µL/min/mg | IC50 (CSF1R [4]): 7.18 nM | solubility kinetic (Kinetic solubility): 0.7 µM (≈ 0.352 µg/mL) | HLM in vitro intrinsic clearing [5]: 77 µL/min/mg | IC50 ([6]; Mus musculus, BaF3, Ba/F3 cells dependent on CSF1R, with standard deviation, read-out: Cellular Assay IC50 (μM), Ba/F3 CSF1R): > 10 µM
SMILES: Cc1cccc(CN(C)c2ncnc3[nH]c(-c4ccc(NCc5ccc(C(F)(F)F)nc5)nc4)cc23)c1 [Compound 14c, N-Methyl-N-(3-methylbenzyl)-6-(6-(((6-(trifluoromethyl)pyridin-3-yl)methyl)amino)pyridin-3-yl)-7H-pyrrolo[2,3-d]pyrimidin-4-amine]
Cellular activity in Ba/F3 CSF1R cells (in words) ([6]; Ba/F3 cells dependent on constitutively active CSF1R): completely inactive in cells
